These results are taken from US20090163586A1, “Bis-(Sulfonylamino) Derivatives in Therapy 205” (AstraZeneca AB, priority 2007, published 2009).

The experiment has as its target T1, human mPGES-1 (Homo sapiens, UniProt O14684).
T1 sequence (O14684 1-152): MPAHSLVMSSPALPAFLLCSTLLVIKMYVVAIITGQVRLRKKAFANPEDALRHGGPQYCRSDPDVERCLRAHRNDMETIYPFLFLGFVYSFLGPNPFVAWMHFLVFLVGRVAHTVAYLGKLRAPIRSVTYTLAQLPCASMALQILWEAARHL
Nature of the experiment: Microsomal prostaglandin E synthase biochemical assay. The conditions noted are these: microsome preparation containing human mPGES-1; PGH2 10.8 μM, GSH 2.5 mM, pH 6.8; PGE2 by HTRF; average of at least n=2. The procedure, abridged:
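Human mPGES-1 microsomes at 2 μg/mL were pre-incubated 15 min with compound (60 μM to 0.002 μM) in 50 mM potassium phosphate pH 6.8 with 2.5 mM GSH. The reaction was started with 10.8 μM PGH2 and stopped after 1 minute with acidic ferric chloride/citrate. PGE2 was quantified by HTRF; IC50 is the mean of at least 2 runs.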

Consider `NS(=O)(=O)c1ccc(F)cc1NS(=O)(=O)/C=C/c1ccc(Br)cc1` [Example 95, 2-[[(E)-2-(4-Bromophenyl)ethenyl]sulfonylamino]-4-fluoro-benzenesulfonamide], for which the IC50 was 310 nM. This lies in the sub-micromolar range.

Compound `Cc1ccc(NS(=O)(=O)/C=C/c2ccc3ccccc3c2)c(S(N)(=O)=O)c1` [Example 96, 5-Methyl-2-[[(E)-2-naphthalen-2-ylethenyl]sulfonylamino]benzenesulfonamide] registered an IC50 of 4800 nM. This IC50 is about 15-fold higher than that of the compound before.

In turn, `Cc1ccc(NS(=O)(=O)/C=C/c2ccc(C(F)(F)F)cc2)c(S(N)(=O)=O)c1` [Example 97, 5-Methyl-2-[[(E)-2-[4-(trifluoromethyl)phenyl]ethenyl]sulfonylamino]-benzenesulfonamide] came in with a concentration for half-maximal inhibition (IC50) of 3400 nM.

For the compound `Cc1ccc(NS(=O)(=O)/C=C/c2ccc(Br)cc2)c(S(N)(=O)=O)c1` [Example 98, 2-[[(E)-2-(4-Bromophenyl)ethenyl]sulfonylamino]-5-methyl-benzenesulfonamide], the IC50 was determined as 680 nM.

`NS(=O)(=O)c1cc(F)ccc1NS(=O)(=O)/C=C/c1ccc2ccccc2c1` [Example 99, 5-Fluoro-2-[[(E)-2-naphthalen-2-ylethenyl]sulfonylamino]benzenesulfonamide] showed an IC50 of 290 nM.

`NS(=O)(=O)c1cc(F)ccc1NS(=O)(=O)/C=C/c1ccccc1C(F)(F)F` [Example 100, 5-Fluoro-2-[[(E)-2-[2-(trifluoromethyl)phenyl]ethenyl]sulfonylamino]-benzenesulfonamide] showed an IC50 of 4000 nM.

`NS(=O)(=O)c1cc(F)ccc1NS(=O)(=O)/C=C/c1ccc(C(F)(F)F)cc1` [Example 101, 5-Fluoro-2-[[(E)-2-[4-(trifluoromethyl)phenyl]ethenyl]sulfonylamino]-benzenesulfonamide] yielded an IC50 of 1600 nM.

As to `NS(=O)(=O)c1cc(F)ccc1NS(=O)(=O)/C=C/c1ccc(Br)cc1` [Example 102, 2-[[(E)-2-(4-Bromophenyl)ethenyl]sulfonylamino]-5-fluoro-benzenesulfonamide], 850 nM corresponded to half-maximal inhibition (IC50).

Regarding `NS(=O)(=O)c1ccccc1NS(=O)(=O)/C=C/c1c(F)cccc1F` [Example 103, 2-[[(E)-2-(2,6-Difluorophenyl)ethenyl]sulfonylamino]benzenesulfonamide], the midpoint of inhibition, the IC50, lay at 9200 nM.

For `NS(=O)(=O)c1ccccc1NS(=O)(=O)/C=C/c1ccccc1C(F)(F)F` [Example 104, 2-[[(E)-2-[2-(Trifluoromethyl)phenyl]ethenyl]sulfonylamino]benzenesulfonamide], half-maximal inhibition (IC50) required 4600 nM.

On to `NS(=O)(=O)c1ccccc1NS(=O)(=O)/C=C/c1ccc(C(F)(F)F)cc1` [Example 105, 2-[[(E)-2-[4-(Trifluoromethyl)phenyl]ethenyl]sulfonylamino]benzenesulfonamide], for which inhibition was half-maximal at 670 nM (IC50).

`NS(=O)(=O)c1ccccc1NS(=O)(=O)/C=C/c1ccc(Br)cc1` [Example 106, 2-[[(E)-2-(4-Bromophenyl)ethenyl]sulfonylamino]benzenesulfonamide]: the IC50 is 74 nM.

With `NS(=O)(=O)c1ccccc1NS(=O)(=O)CCc1ccc(Br)cc1` [Example 107, 2-[(E)-2-(4-Bromophenyl)ethylsulfonylamino]benzenesulfonamide], it took 140 nM to reach half-maximal inhibition (IC50).

`CC(CS(=O)(=O)Nc1ccccc1S(N)(=O)=O)c1ccc(Cl)cc1` (centres unmarked) [Example 108, 2-[2-(4-Chlorophenyl)propylsulfonylamino]benzenesulfonamide]: the IC50 worked out at 4900 nM.

Take `COc1ccccc1CCS(=O)(=O)Nc1ccccc1S(N)(=O)=O` [Example 109, 2-[2-(2-Methoxyphenyl)ethylsulfonylamino]benzenesulfonamide]: inhibition was half-maximal at 6100 nM (IC50).

For the compound `NS(=O)(=O)c1ccccc1NS(=O)(=O)CCc1ccc2ccccc2c1` [Example 110, 2-(2-Naphthalen-2-ylethylsulfonylamino)benzenesulfonamide], half-maximal inhibition (IC50) was put at 490 nM. This IC50 lies about 12-fold lower than the previous one.

As for `NS(=O)(=O)c1ccc(F)cc1NS(=O)(=O)CCc1ccc2ccccc2c1` [Example 111, 4-Fluoro-2-(2-naphthalen-2-ylethylsulfonylamino)benzenesulfonamide], 760 nM corresponded to half-maximal inhibition (IC50).

The term IC50 denotes the concentration needed to halve the response being measured. Read a high IC50 as weaker potency.
